Measurements published in US12528837B2, “Aryl substituted polymyxin derivatives” (priority 2018, dated 2026).
Values after ≈ are worked out from the molar mass of the structure shown. Read-outs that look alike come from different tables or passages of the source. *1 amine or outer side, *2 acyl side, *3 side chain or, on linkers, in order; H or OH if unused. Where a SMILES comes first, the peptide text is derived from it. Bridges are numbered along the chain shown (N, C = ends). [ ]: non-standard residue; d: D form. The star is where a group is joined. GABA(3S-Bn) = O=C(C[C@@H](CN[*:1])Cc1ccccc1)[*:2]; X3 = CC(C)c1cccc([C@@H](CN)CC(=O)*)c1; X9 = CC(C)c1cccc([C@H](CN)CC(=O)*)c1; X19 = NC[C@@H](CC(=O)*)c1cccc(Br)c1; Dab = NCC[C@H](N)C(=O)O; Abu = CC[C@H](N)C(=O)O; Dap = NC[C@H](N)C(=O)O

Legend:
[1] = system: HK-2 cells; assay: In vitro renal cell toxicity assay (HK-2); type: cell-based
Description: The in vitro renal cell toxicity assay was performed according to the following protocol. […] Cells were seeded at 7,500 cells per well in 96-well plates and allowed to adhere overnight. […] Water and DMSO levels were kept constant at 5% and 0.5% respectively. The test compounds were incubated with cells for 24 h at 37° C. 5% CO2 in a humidified atmosphere. […] Media only background values were subtracted before the data was analysed using GraphPad Prism. Individual values were normalised to the vehicle control wells for each compound. Compound concentration values were plotted as log values to enable a dose-response curve to be fitted. The bottom of the curve was constrained to zero and IC50 values were determined. IC50 values are expressed relative to that for PMB in the same experiment. Where multiple determinations have been made, median values are presented.

[2] = system: K. pneumoniae CA64; type: cell-based
Description: (§1) The inoculum was prepared by making a direct suspension of isolated colonies (selected from an 18-24 hour Mueller-Hinton agar plate) adjusted to the 0.5 McFarland standard. […] The assays were performed in duplicate. […] Several of the compounds were subjected to multiple tests, and where this is the case, the MIC presented is the median value obtained. The MIC values are quoted in μg/mL.

[3] = system: P. aeruginosa CCUG 59347; type: cell-based
Description: as §1

[4] = system: E. coli CA58; type: cell-based
Description: as §1

[5] = Kidney drug level after subcutaneous dose in mouse; type: in vivo; conditions: for tissue level at time at 4 h: in vivo
Description: Four hours after dosing the animals were euthanised and kidneys removed, trimmed of fat and connective tissue, weighed and immediately snap-frozen. After thawing at room temperature, pairs of kidneys from each animal were placed in 2 mL conical tubes containing pre-weighed ceria-stabilised zirconium oxide beads. […] After 10 min. centrifugation at 13,000 rpm and 6° C., 200 μl of the supernatants were transferred into glass inserts and analysed by LC-MS-MS.

[6] = system: E. coli ATCC 25922; type: cell-based; conditions: cation-adjusted Mueller-Hinton Broth, 18-20 h, 35° C.
Description: (§2) The inoculum was prepared by making a direct suspension of isolated colonies (selected from an 18-24 hour Mueller-Hinton agar plate) adjusted to the 0.5 McFarland standard. […] The assays were performed in duplicate. […] The MIC values are quoted in μg/mL.

[7] = system: P. aeruginosa ATCC 27853; type: cell-based
Description: as §2

[8] = system: K. pneumoniae ATCC 13822; type: cell-based; conditions: cation-adjusted Mueller-Hinton Broth, 18-20 h, 35° C.
Description: as §2

[9] = system: A. baumannii ATCC BAA-747; type: cell-based
Description: as §2

[10] = system: A. baumannii NCTC 13424; type: cell-based
Description: as §2

[11] = IC50 relative to PMB in the same experiment, 24 h
[12] = cation-adjusted Mueller-Hinton Broth, 18-20 h, 35° C.
[13] = mouse, mice, 17.2 mg/kg free base sc, 4 h, read-out: 4 hr kidney level

| MIC K. pneumoniae CA64 ([2]; CA64) [µg/mL] | MIC P. aeruginosa CCUG 59347 ([3]; CCUG 59347) [µg/mL] | MIC E. coli CA58 ([4]; CA58) [µg/mL] | tissue level at time at 4 h ([5]; mouse, sc, 17.2 mg/kg) [ng/g] | MIC A. baumannii ATCC BAA-747 ([9]; ATCC BAA-747) [µg/mL] | MIC P. aeruginosa ATCC 27853 ([7]; ATCC 27853) [µg/mL] | MIC A. baumannii NCTC 13424 ([10]; NCTC 13424) [µg/mL] | SMILES | HK-2 rel to PMB [1, 11] | MIC K. pneumoniae CA64 [2, 12] [µg/mL] | MIC P. aeruginosa CCUG 59347 [3, 12] [µg/mL] | MIC E. coli CA58 [4, 12] [µg/mL] | tissue level at time at 4 h [5, 13] [ng/g] | MIC E. coli ATCC 25922 [6] [µg/mL] | MIC P. aeruginosa ATCC 27853 [7, 12] [µg/mL] | MIC K. pneumoniae ATCC 13822 [8] [µg/mL] | Drug level in kidney ([5]; mouse, 17.2 mg/kg sc, 4 hours) [µg/g] | 4 hr kidney level/rel. cytotoxicity ([5]; ratio of 4 h kidney level to HK-2 IC50 relative to PMB) | MIC A. baumannii ATCC BAA-747 [9, 12] [µg/mL] | MIC A. baumannii NCTC 13424 [10, 12] [µg/mL] | HK-2 rel to PMB [1] |
| --- | --- | --- | --- | --- | --- | --- | --- | --- | --- | --- | --- | --- | --- | --- | --- | --- | --- | --- | --- | --- |
| – | – | – | – | – | – | – | CC[C@@H]1NC(=O)[C@@H](Cc2ccccc2)NC(=O)[C@H](CCN)NC(=O)[C@@H](NC(=O)[C@H](CN)NC(=O)[C@@H](NC(=O)C[C@@H](CN)c2cccc(C(C)C)c2)[C@@H](C)O)CCNC(=O)[C@H]([C@@H](C)O)NC(=O)[C@H](CCN)NC(=O)[C@H](CCN)NC1=O [Example 18] (X9-T[Dap][Dab][Dab][dF][Abu][Dab][Dab]T; lactam 3-C) | 32.8 | 8 (≈ 7.12 µM) | 0.25 (≈ 0.222 µM) | 16 (≈ 14.2 µM) | 535000 | 0.25 (≈ 0.222 µM) | 0.25 (≈ 0.222 µM) | 0.25 (≈ 0.222 µM) | – | – | – | – | – |
| – | – | – | – | – | – | – | CC(C)C[C@@H]1NC(=O)[C@@H](Cc2ccccc2)NC(=O)[C@H](CCN)NC(=O)[C@@H](NC(=O)[C@H](CN)NC(=O)[C@@H](NC(=O)C[C@@H](CN)Cc2ccccc2)[C@@H](C)O)CCNC(=O)[C@H]([C@@H](C)O)NC(=O)[C@H](CCN)NC(=O)[C@H](CCN)NC1=O [Example 10, (S)-4-amino-3- benzylbutanoyl-Thr- Dap-Cyclo[Dab-Dab- DPhe-Leu-Dab-Dab- Thr]. Isomer 2] ({GABA(3S-Bn)}-T[Dap][Dab][Dab][dF]L[Dab][Dab]T; lactam 3-C) | 8 | 16 (≈ 14.2 µM) | 0.25 (≈ 0.222 µM) | 8 (≈ 7.12 µM) | 346000 | – | – | 0.5 (≈ 0.445 µM) | 346 | 43 | 0.25 (≈ 0.222 µM) | 0.25 (≈ 0.222 µM) | – |
| 16 (≈ 14.3 µM) | 0.5 (≈ 0.447 µM) | 4 (≈ 3.58 µM) | 443000 | 0.06 (≈ 0.0536 µM) | 0.25 (≈ 0.224 µM) | 0.06 (≈ 0.0536 µM) | CC(C)C[C@@H]1NC(=O)[C@@H](CC(C)C)NC(=O)[C@H](CCN)NC(=O)[C@@H](NC(=O)[C@H](CN)NC(=O)[C@@H](NC(=O)C[C@H](CN)c2cccc(C(C)C)c2)[C@@H](C)O)CCNC(=O)[C@H]([C@@H](C)O)NC(=O)[C@H](CCN)NC(=O)[C@H](CCN)NC1=O [Example 15, (S)-4-amino-3-(3- isopropylphenyl) butanoyl-Thr-Dap- Cyclo[Dab-Dab-DLeu- Leu-Dab-Dab-Thr]] (X3-T[Dap][Dab][Dab][dL]L[Dab][Dab]T; lactam 3-C) | – | – | – | – | – | – | – | – | – | – | – | – | 52.1 |
| – | – | – | – | – | – | – | CC[C@@H]1NC(=O)[C@@H](CC(C)C)NC(=O)[C@H](CCN)NC(=O)[C@@H](NC(=O)[C@H](CN)NC(=O)[C@@H](NC(=O)C[C@H](CN)c2cccc(Br)c2)[C@@H](C)O)CCNC(=O)[C@H]([C@@H](C)O)NC(=O)[C@H](CCN)NC(=O)[C@H](CCN)NC1=O [Example 32, (S)-4-amino-3-(3- bromophenyl)butanoyl- Thr-Dap-Cyclo[Dab- Dab-DLeu-Abu-Dab- Dab-Thr]] (X19-T[Dap][Dab][Dab][dL][Abu][Dab][Dab]T; lactam 3-C) | – | 32 (≈ 28.4 µM) | 0.5 (≈ 0.444 µM) | 32 (≈ 28.4 µM) | – | 0.25 (≈ 0.222 µM) | 0.5 (≈ 0.444 µM) | 0.5 (≈ 0.444 µM) | – | – | – | – | – |
